Experimental data: patent US9067922B2, “Chemical compounds” (Pfizer Limited, priority 2013, dated 2015)

Target: URAT-1 transporter (Homo sapiens (Human), UniProt Q96S37)
Test: URAT-1 inhibitor activity: [14C]-uric acid uptake in CHO-URAT1(L)GFP#8 (CHO#8) cells, scintillation proximity
Type: cell-based
Details: inhibition of [14C]-uric acid (30 nM) uptake into CHO#8 cells; compound 0 to 10 μM; 4 parameter logistic fit
How it was run: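 CHO cells stably expressing human URAT1 long isoform–eGFP fusion, pre-incubated 1 h in chloride-containing buffer pH 7.4, then given 30 nM [14C]-uric acid with compound (0–10 μM, 0.25% DMSO) in chloride-free gluconate buffer pH 7.4. Uptake measured by scintillation proximity on Cytostar plates.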

Sequence of URAT-1 transporter (Q96S37 other isoform, or with tags, fused parts or gaps): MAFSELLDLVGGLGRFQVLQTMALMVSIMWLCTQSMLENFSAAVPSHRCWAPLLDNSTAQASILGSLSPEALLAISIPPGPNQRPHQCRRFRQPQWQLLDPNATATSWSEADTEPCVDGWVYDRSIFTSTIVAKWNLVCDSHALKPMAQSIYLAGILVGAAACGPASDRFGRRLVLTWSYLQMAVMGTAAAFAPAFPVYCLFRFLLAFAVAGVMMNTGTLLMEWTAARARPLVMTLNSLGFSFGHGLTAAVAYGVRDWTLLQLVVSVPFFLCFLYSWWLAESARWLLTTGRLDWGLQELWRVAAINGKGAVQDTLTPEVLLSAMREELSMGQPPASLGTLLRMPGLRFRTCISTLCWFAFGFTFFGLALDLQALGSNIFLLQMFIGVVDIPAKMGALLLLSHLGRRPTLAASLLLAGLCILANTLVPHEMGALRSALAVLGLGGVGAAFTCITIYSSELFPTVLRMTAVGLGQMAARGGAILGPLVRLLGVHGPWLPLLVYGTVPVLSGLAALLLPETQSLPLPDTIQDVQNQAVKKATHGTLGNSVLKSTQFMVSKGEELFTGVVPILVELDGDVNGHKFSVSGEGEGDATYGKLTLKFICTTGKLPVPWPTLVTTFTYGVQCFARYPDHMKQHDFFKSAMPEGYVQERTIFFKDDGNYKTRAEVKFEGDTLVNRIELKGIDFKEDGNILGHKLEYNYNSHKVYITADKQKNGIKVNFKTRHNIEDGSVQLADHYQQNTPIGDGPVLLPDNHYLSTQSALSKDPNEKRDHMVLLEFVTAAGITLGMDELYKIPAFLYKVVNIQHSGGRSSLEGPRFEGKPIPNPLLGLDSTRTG

Structure (SMILES)	IC50 [µM]
Cc1ccc(C(C)C)cc1Oc1ccc(S(=O)(=O)Nc2ccc(F)cn2)cc1C#N [Example 174, 3-cyano-N-(5-fluoropyridin-2-yl)-4-[2-methyl-5-(propan-2-yl)phenoxy]benzenesulfonamide]	> 10
Cc1ccc(Oc2ccc(S(=O)(=O)Nc3ccc(F)cn3)cc2C#N)c(Cl)c1C [Example 178, 4-(2-chloro-3,4-dimethylphenoxy)-3-cyano-N-(5-fluoropyridin-2-yl)benzenesulfonamide]	> 10
COc1cccc(Oc2ccc(S(=O)(=O)Nc3ccc(F)cn3)cc2C#N)c1C [Example 181, 3-cyano-N-(5-fluoropyridin-2-yl)-4-(3-methoxy-2-methylphenoxy)benzenesulfonamide]	> 10
N#Cc1cc(S(=O)(=O)Nc2ccc(F)cn2)ccc1Oc1ccccn1 [Example 187, 3-cyano-N-(5-fluoropyridin-2-yl)-4-(pyridin-2-yloxy)benzenesulfonamide]	> 10
N#Cc1cc(S(=O)(=O)Nc2ccc(F)cn2)ccc1Oc1ccccc1Br [Example 189, 4-(2-bromophenoxy)-3-cyano-N-(5-fluoropyridin-2-yl)benzenesulfonamide]	0.103
COc1ccncc1Oc1ccc(S(=O)(=O)Nc2ccc(F)cn2)cc1C#N [Example 190, 3-cyano-N-(5-fluoropyridin-2-yl)-4-[(4-methoxypyridin-3-yl)oxy]benzenesulfonamide]	> 10
N#Cc1cc(S(=O)(=O)Nc2ccc(F)cn2)ccc1Oc1cccnc1 [Example 194, 3-cyano-N-(5-fluoropyridin-2-yl)-4-(pyridin-3-yloxy)benzenesulfonamide]	> 10
N#Cc1cc(S(=O)(=O)Nc2ccc(F)cn2)ccc1Oc1ccc(C(F)(F)F)nc1 [Example 196, 3-cyano-N-(5-fluoropyridin-2-yl)-4-{[6-(trifluoromethyl)pyridin-3-yl]oxy}benzenesulfonamide]	> 10
COc1ccc(C#N)cc1Oc1ccc(S(=O)(=O)Nc2ccc(F)cn2)cc1C#N [Example 197, 3-cyano-4-(5-cyano-2-methoxyphenoxy)-N-(5-fluoropyridin-2-yl)benzenesulfonamide]	> 10
N#Cc1cc(S(=O)(=O)Nc2ccc(F)cn2)ccc1Oc1ccc(C#N)c(C2CC2)c1 [Example 203, 3-cyano-4-(4-cyano-3-cyclopropylphenoxy)-N-(5-fluoropyridin-2-yl)benzenesulfonamide]	0.037
COc1cc(C#N)ccc1Oc1ccc(S(=O)(=O)Nc2ccc(F)cn2)cc1C#N [Example 204, 3-cyano-4-(4-cyano-2-methoxyphenoxy)-N-(5-fluoropyridin-2-yl)benzenesulfonamide]	> 10
CC(C)Oc1ccccc1Oc1ccc(S(=O)(=O)Nc2ccc(F)cn2)cc1C#N [Example 207, 3-cyano-N-(5-fluoropyridin-2-yl)-4-[2-(propan-2-yloxy)phenoxy]benzenesulfonamide]	> 10
COc1cccc(Oc2ccc(S(=O)(=O)Nc3ccc(F)cn3)cc2C#N)c1 [Example 208, 3-cyano-N-(5-fluoropyridin-2-yl)-4-(3-methoxyphenoxy)benzenesulfonamide]	> 10
Cc1ccnc(NS(=O)(=O)c2ccc(Oc3cccc(Cl)c3C#N)cc2)c1 [Example 216, 4-(3-chloro-2-cyanophenoxy)-N-(4-methylpyridin-2-yl)benzenesulfonamide]	> 10
N#Cc1c(Cl)cccc1Oc1ccc(S(=O)(=O)Nc2ccncc2)cc1 [Example 217, 4-(3-chloro-2-cyanophenoxy)-N-(pyridin-4-yl)benzenesulfonamide]	> 10
N#Cc1c(Cl)cccc1Oc1ccc(S(=O)(=O)Nc2ccccn2)cc1 [Example 218, 4-(3-chloro-2-cyanophenoxy)-N-(pyridin-2-yl)benzenesulfonamide]	> 10
N#Cc1c(Cl)cccc1Oc1ccc(S(=O)(=O)Nc2cccnc2)cc1 [Example 219, 4-(3-chloro-2-cyanophenoxy)-N-(pyridin-3-yl)benzenesulfonamide]	> 10
Cc1ccnc(NS(=O)(=O)c2ccc(Oc3cccc(Cl)c3C#N)cc2)n1 [Example 220, 4-(3-chloro-2-cyanophenoxy)-N-(4-methylpyrimidin-2-yl)benzenesulfonamide]	> 10
Cc1ccc(NS(=O)(=O)c2ccc(Oc3cccc(Cl)c3C#N)cc2)nc1 [Example 221, 4-(3-chloro-2-cyanophenoxy)-N-(5-methylpyridin-2-yl)benzenesulfonamide]	> 10
N#Cc1c(Cl)cccc1Oc1ccc(S(=O)(=O)Nc2ncccn2)cc1 [Example 222, 4-(3-chloro-2-cyanophenoxy)-N-(pyrimidin-2-yl)benzenesulfonamide]	> 10
N#Cc1c(Cl)cccc1Oc1ccc(S(=O)(=O)Nc2cnccn2)cc1 [Example 223, 4-(3-chloro-2-cyanophenoxy)-N-(pyrazin-2-yl)benzenesulfonamide]	> 10
N#Cc1cc(S(=O)(=O)Nc2ccc(F)cn2)ccc1Oc1ccc(N)cc1 [Example 224, 4-(4-aminophenoxy)-3-cyano-N-(5-fluoropyridin-2-yl)benzenesulfonamide]	> 10

Second part, the molecule after the results:

IC50 [µM]	Structure (SMILES)
0.131	COc1c(Oc2ccc(S(=O)(=O)Nc3ccc(F)cn3)cc2C#N)ccc(F)c1C [Example 173, 3-cyano-4-(4-fluoro-2-methoxy-3-methylphenoxy)-N-(5-fluoropyridin-2-yl)benzenesulfonamide]
0.455	Cc1ccc(Oc2ccc(S(=O)(=O)Nc3ccc(F)cn3)cc2C#N)c(C)c1Cl [Example 175, 4-(3-chloro-2,4-dimethylphenoxy)-3-cyano-N-(5-fluoropyridin-2-yl)benzenesulfonamide]
1.02	N#Cc1cc(S(=O)(=O)Nc2ccc(F)cn2)ccc1Oc1cc(F)ccc1Cl [Example 176, 4-(2-chloro-5-fluorophenoxy)-3-cyano-N-(5-fluoropyridin-2-yl)benzenesulfonamide]
0.246	N#Cc1cc(S(=O)(=O)Nc2ccc(F)cn2)ccc1Oc1cc(F)c(F)cc1Cl [Example 177, 4-(2-chloro-4,5-difluorophenoxy)-3-cyano-N-(5-fluoropyridin-2-yl)benzenesulfonamide]
> 0.728	N#Cc1cc(S(=O)(=O)Nc2ccc(F)cn2)ccc1Oc1cccc(Cl)c1C#N [Example 179, 4-(3-chloro-2-cyanophenoxy)-3-cyano-N-(5-fluoropyridin-2-yl)benzenesulfonamide]
0.877	N#Cc1cc(S(=O)(=O)Nc2ccc(F)cn2)ccc1Oc1cnc(C2CC2)c(Cl)c1 [Example 180, 4-[(5-chloro-6-cyclopropylpyridin-3-yl)oxy]-3-cyano-N-(5-fluoropyridin-2-yl)benzenesulfonamide]
0.175	COc1cc(C)cc(Oc2ccc(S(=O)(=O)Nc3ccc(F)cn3)cc2C#N)c1 [Example 182, 3-cyano-N-(5-fluoropyridin-2-yl)-4-(3-methoxy-5-methylphenoxy)benzenesulfonamide]
0.183	N#Cc1cc(S(=O)(=O)Nc2ccc(F)cn2)ccc1Oc1ccc(F)cc1 [Example 183, 3-cyano-4-(4-fluorophenoxy)-N-(5-fluoropyridin-2-yl)benzenesulfonamide]
0.385	Cc1ncccc1Oc1ccc(S(=O)(=O)Nc2ccc(F)cn2)cc1C#N [Example 184, 3-cyano-N-(5-fluoropyridin-2-yl)-4-[(2-methylpyridin-3-yl)oxy]benzenesulfonamide]
0.324	Cc1ccccc1Oc1ccc(S(=O)(=O)Nc2ccc(F)cn2)cc1C#N [Example 186, 3-cyano-N-(5-fluoropyridin-2-yl)-4-(2-methylphenoxy)benzenesulfonamide]
3.74	COc1ccc(Oc2ccc(S(=O)(=O)Nc3ccc(F)cn3)cc2C#N)cc1 [Example 188, 3-cyano-N-(5-fluoropyridin-2-yl)-4-(4-methoxyphenoxy)benzenesulfonamide]
1.99	Cc1ccc(Oc2ccc(S(=O)(=O)Nc3ccc(F)cn3)cc2C#N)cc1 [Example 191, 3-cyano-N-(5-fluoropyridin-2-yl)-4-(4-methylphenoxy)benzenesulfonamide]
0.792	Cc1ccncc1Oc1ccc(S(=O)(=O)Nc2ccc(F)cn2)cc1C#N [Example 198, 3-cyano-N-(5-fluoropyridin-2-yl)-4-[(4-methylpyridin-3-yl)oxy]benzenesulfonamide]
0.129	COc1ccc(Oc2ccc(S(=O)(=O)Nc3ccc(F)cn3)cc2C#N)cn1 [Example 199, 3-cyano-N-(5-fluoropyridin-2-yl)-4-[(6-methoxypyridin-3-yl)oxy]benzenesulfonamide]
0.053	COc1ccc(C)c(Oc2ccc(S(=O)(=O)Nc3ccc(F)cn3)cc2C#N)c1 [Example 200, 3-cyano-N-(5-fluoropyridin-2-yl)-4-(5-methoxy-2-methylphenoxy)benzenesulfonamide]
0.074	COc1ccc(Oc2ccc(S(=O)(=O)Nc3ccc(F)cn3)cc2C#N)c(C)c1 [Example 201, 3-cyano-N-(5-fluoropyridin-2-yl)-4-(4-methoxy-2-methylphenoxy)benzenesulfonamide]
0.037	N#Cc1cc(S(=O)(=O)Nc2ccc(F)cn2)ccc1Oc1cncc(Cl)c1 [Example 202, 4-[(5-chloropyridin-3-yl)oxy]-3-cyano-N-(5-fluoropyridin-2-yl)benzenesulfonamide]
2.63	N#Cc1ccc(Oc2ccc(S(=O)(=O)Nc3ccc(F)cn3)cc2C#N)cn1 [Example 205, 3-cyano-4-[(6-cyanopyridin-3-yl)oxy]-N-(5-fluoropyridin-2-yl)benzenesulfonamide]
1.08	N#Cc1cncc(Oc2ccc(S(=O)(=O)Nc3ccc(F)cn3)cc2C#N)c1 [Example 206, 3-cyano-4-[(5-cyanopyridin-3-yl)oxy]-N-(5-fluoropyridin-2-yl)benzenesulfonamide]
2.33	N#Cc1cc(Oc2cc(F)c(S(=O)(=O)Nc3ncccn3)cc2Cl)ccc1F [Example 225, 5-chloro-4-(3-cyano-4-fluorophenoxy)-2-fluoro-N-(pyrimidin-2-yl)benzenesulfonamide]
